Assay results taken from patent US20090182133A1 (priority 2005, published 2009).
“Also recorded” adds a separate entry of the source. Where two headings read alike, the source gives them in different places.

Key:
[1] = target: HCV 3CL proteinase (Human coronavirus 229E, UniProt P0C6X1); experiment: biochemical; type: binding, common cold virus (HCoV-229E antigenic type)
[2] = target: T1, SARS 3CL proteinase (Severe acute respiratory syndrome coronavirus, UniProt P0C6X7); experiment: biochemical; set-up: species or system SARS-CoV
[3] = target: T1, SARS 3CL proteinase; experiment: biochemical; type: binding, SARS-CoV

HCV 3CL proteinase, sequence (P0C6X1 2966-3267 limits assumed): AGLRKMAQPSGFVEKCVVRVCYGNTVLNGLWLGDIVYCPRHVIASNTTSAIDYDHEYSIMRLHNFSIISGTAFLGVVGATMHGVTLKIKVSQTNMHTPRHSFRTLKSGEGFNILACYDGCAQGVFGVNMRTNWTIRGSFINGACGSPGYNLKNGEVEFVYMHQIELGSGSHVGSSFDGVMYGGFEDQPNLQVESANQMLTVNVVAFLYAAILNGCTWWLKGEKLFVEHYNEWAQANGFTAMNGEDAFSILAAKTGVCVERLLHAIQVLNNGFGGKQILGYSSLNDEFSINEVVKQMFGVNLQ

Structure (SMILES) | Kd [1] | affinity with HCV 3CL proteinases (in words) [1] | IC50 [2] | Kd [3] | coupling/affinity with SARS 3CL (in words) [3] | melting point | Kd ([3]; read-out: KD SARS 3CL) | Kd ([1]; read-out: KD HCV 3CL)
O=c1c(O[C@@H]2O[C@H](CO)[C@@H](O)[C@H](O)[C@H]2O)c(-c2ccc(O)c(O)c2)oc2cc(O)cc(O)c12 [IA-1, Quercetin-3-O-β-D-glucopyranoside] | 28.8 µM | weaker affinity | – | – | – | – | – | –
O=c1c(O[C@@H]2OC[C@@H](O)[C@@H](O)[C@@H]2O)c(-c2ccc(O)c(O)c2)oc2cc(O)cc(O)c12 [IA-3, Quercetin-3-O-β-D-arabinopyranoside] | 3.76 µM | high affinity | 31.6 µM | 13.2 µM | couple strongly | – | – | –
C[C@H]1O[C@@H](Oc2c(-c3ccc(O)c(O)c3)oc3cc(O)cc(O)c3c2=O)[C@H](O)[C@@H](O)[C@H]1O [IA-4, Quercetin-3-O-β-D-fucopyranoside] | 5.75 µM | high affinity | 24.1 µM | 104 µM | couple strongly; also recorded: weaker affinity | – | – | –
O=c1c(OC2CCCCC2)c(-c2ccc(O)c(O)c2)oc2cc(O)ccc12 [IB-1, 3-O-cyclohexyl-3′,4′,7-trihydroxy-flavonol] | 3.52 µM | high affinity | 33.1 µM | 33.7 µM | couple strongly | 98 to 100 °C | – | –
O=c1c(OC2CCCCCC2)c(-c2ccc(O)c(O)c2)oc2cc(O)ccc12 [IB-3, 3-O-cycloheptyl-3′,4′,7-trihydroxy-flavonol] | 1.51 µM | high affinity | – | 33.5 µM | couple strongly | 68 to 71 °C | – | –
O=c1c(OCC2COc3ccccc3O2)c(-c2cc(O)cc(O)c2)oc2cc(O)ccc12 (stereo not drawn) [IB-4, 3-(2,3-dihydro-benzo[1,4]dioxan-2-yl-methoxy)-3′,5′,7-trihydroxy-flavonol] | – | high affinity | – | – | couple strongly | – | 16.8 µM | 2.6 µM
